Test results from ChEMBL document CHEMBL1136320, “Substrate properties of C5-substituted pyrimidine 2'-deoxynucleoside 5'-triphosphates for thermostable DNA polymerases during PCR” (Bioorg Med Chem Lett, 2003).

Tests used:
Nucleic Acid [1] = experiment: Amount of full-length DNA product formed using polymerase B Vent (exo); range is 35-70%; format: nucleic-acid assay
Nucleic Acid [2] = experiment: Amount of full-length DNA product formed using Taq polymerase; No product detected; format: functional
Nucleic Acid [3] = experiment: Amount of full-length DNA product formed using polymerase B Pfu; format: nucleic-acid assay
Nucleic Acid [4] = experiment: Amount of full-length DNA product formed using polymerase B Pwo; range is 35-70%; format: nucleic-acid assay
Nucleic Acid [5] = experiment: Amount of full-length DNA product formed using polymerase A Tth; No product detected; format: nucleic-acid assay
Nucleic Acid [6] = experiment: Amount of full-length DNA product formed using polymerase B Deep vent (exo); format: nucleic-acid assay
Nucleic Acid [7] = experiment: Amount of full-length DNA product formed using polymerase A Thermo Sequenase; No product detected; format: nucleic-acid assay
Nucleic Acid [8] = experiment: Amount of full-length DNA product formed using polymerase B Pwo; format: nucleic-acid assay
Nucleic Acid [9] = experiment: Amount of full-length DNA product formed using polymerase B Deep vent (exo); No product detected; format: nucleic-acid assay
Nucleic Acid [10] = experiment: Amount of full-length DNA product formed using polymerase B Vent (exo); No product detected; format: nucleic-acid assay
Nucleic Acid [11] = experiment: Amount of full-length DNA product formed using polymerase B Pwo; No product detected; format: nucleic-acid assay
Nucleic Acid [12] = experiment: Amount of full-length DNA product formed using polymerase B Pfu; No product detected; format: nucleic-acid assay

Row | Activity (Nucleic Acid [1]) [%] | Activity (Nucleic Acid [2]) | Activity (Nucleic Acid [3]) [%] | Activity (Nucleic Acid [4]) [%] | Activity (Nucleic Acid [5]) | Activity (Nucleic Acid [6]) [%] | Activity (Nucleic Acid [7]) | Activity (Nucleic Acid [8]) [%] | Activity (Nucleic Acid [9]) | Activity (Nucleic Acid [10]) | Activity (Nucleic Acid [11]) | Activity (Nucleic Acid [12]) | SMILES
1 | 35 | Not detected | < 35 | 35 | Not detected | < 35 | Not detected |  |  |  |  |  | NCCOCCOCc1cn(C2CC(O)C(COP(=O)(O)OP(=O)(O)OP(=O)(O)O)O2)c(=O)nc1N (stereo unspecified)
2 | 35 | Not detected | < 35 |  | Not detected | < 35 | Not detected | < 35 |  |  |  |  | NCCOCCOCc1cn(C2CC(O)C(COP(=O)(O)OP(=O)(O)OP(=O)(O)O)O2)c(=O)[nH]c1=O (stereo unspecified)
3 |  | Not detected |  |  | Not detected |  | Not detected |  | Not detected | Not detected | Not detected | Not detected | CC#Cc1cn(C2CC(O)C(COP(=O)(O)OP(=O)(O)OP(=O)(O)O)O2)c(=O)nc1N (stereo unspecified)
